Data published in patent US20210275514A1, “COMPOUNDS FOR USE IN TREATING KIDNEY DISORDERS” (Hoffmann-La Roche Inc., priority 2018, published 2021).
Entries after “also recorded” stand apart in the source; their conditions may differ.

Assays:
Conditions in all cases: 18 h
ABCA1 [1] = assay: ABCA1 expression by western blot in differentiated podocytes; format: cell-based, human
Experimental: Podocytes differentiated for 14 days were starved in RPMI-0.2% FBS for 18 h and then treated with freshly prepared dilutions of compounds in full media for 18 h at 37° C. and 5% CO2. Compound concentrations of 1 μM, 5 μM and 10 μM were evaluated. Cells were then washed with PBS and lysed with 1× cell lysis buffer (Cell Signaling) supplemented with protease and phosphatase inhibitor cocktails (Roche). Total protein content was determined by BCA method (Pierce, Thermoscientific). ABCA1 expression was analyzed by western blot.
(§1) Lysates, or cell fractions were incubated with buffer sample at 55° C. for 10 min under reducing conditions. A total of […] of protein in lysates, and one third of the volume collected in cell fraction preps, were separated by SDSPAGE in 4-20% gels (Biorad) and proteins were then transferred to PVDF membranes. Membranes were blocked with 5% milk and blotted with protein-specific antibodies for 18 h at 4° C. The following antibodies were used: mouse anti-ABCA1 (Abcam; 1:1,000), rabbit anti-GAPDH antibody (Millipore; 1:10,000), rabbit anti-MEK and anti-Na^+/K^+ ATPase (Cell Signaling; 1:1,000). After washing with PBS-T, membranes were incubated with anti-mouse and anti-rabbit specific antibodies conjugated to HRP (Promega) 1:10,000 in 5% milk. Membranes were washed and signal was developed using Western bright ECL substrate (Advansta).

ABCA1 [2] = assay: ApoA1-mediated cholesterol efflux in differentiated podocytes; format: cell-based, human
Experimental: Human podocytes differentiated for 13 days were labeled with 1 μCi/ml of [^3H]-cholesterol in RPMI media with 2% FBS for 24 h. Cells were then washed with PBS and incubated with equilibration media (RPMI-0.2% fat free-BSA) supplemented with vehicle or compounds Cpd C (1 μM), Cpd A (1 μM, 5 μM) and Cpd G (1 μM, 5 μM, 10 μM) for 18 h. Cells were then washed with PBS, and incubated with equilibration media with or without 20 μg/ml of human ApoA1 for 18 h at 37° C., 5% CO2. Media was collected, spun at 12,000×g for 5 min and the radioactivity of the 200 μl aliquot was counted by liquid scintillation. Cells were washed with PBS, lysed with 250 μl 0.1% SDS, 0.1 M NaOH and the radioactivity in 100 μl aliquot was measured by liquid scintillation. Cholesterol efflux was calculated as the % of labeled cholesterol that moved from the cell to the media by the formula:
Efflux (%)=100×{(cpm media)/[(cpm media)+(cpm lysate)]}
ApoA1-mediated cholesterol efflux was calculated as the difference between the efflux in the presence or absence of ApoA1. All treatments were done in duplicate. More than 3 independent experiments were performed.

ABCA1 [3] = assay: Cell fractionation, ABCA1 localization by western blot; format: cell-based, human
Experimental: 14 day-differentiated podocytes were treated with compounds Cpd C (1 μM), Cpd A (5 μM) and Cpd G (10 μM) for 18 h and then washed and scraped with ice cold PBS. Cells were centrifuged at 1,000×g for 5 min, supernatant was carefully aspirated and the pellet resuspended in hypotonic buffer (15 mM KCl, 1.5 mM MgCl2, 10 mM HEPES and 1 mM DTT) supplemented with Roche's protease inhibitor cocktail. Further cell rupture was ensured by frothing in a glass douncer and two freeze and thaw cycles. Sucrose was added, 227 mM final concentration, and the cells were centrifuged at 1,000×g for 30 min at 4° C. The supernatant was then transferred to a new tube and centrifuged at 10,000×g for 15 min at 4° C. The pellet, containing the microsomal fraction was collected and the supernatant was transferred to a new tube and centrifuged at 100,000×g for 1 hr at 4° C. The pelleted plasma membrane fraction was collected and the supernatant, containing non membranous cytosolic fraction, was concentrated in Vivaspin 500 filter columns. The presence of ABCA1, and proteins known to be present at the plasma membrane (Na^+/K^+ sodium pump) and cytosol (MEK), in each fraction was verified by western blot.
as §1

[4] = tested on: differentiated human podocytes; assay: Compound cytotoxicity in differentiated human podocytes (ApoTox-Glo Triplex Assay); format: cell-based
Experimental: Podocytes were seeded in 96-well plates (Greiner) and allowed to differentiate for 14 days. Cells were then washed with PBS, and incubated with media (RPMI-0.2% BSA) with or without vehicle and compounds for 18 h at 37° C., 5% CO2. Compound concentrations tested were 1 μM, 5 μM, 10 μM and 20 μM. Vehicle (DMSO) final concentration was 0.1%. All treatments were done in duplicates. Cytotoxicity was assayed using ApoTox-Glo Triplex Assay (Promega) following manufacturer's instructions. Briefly, cell-permeant (GF-AFC) and cell impermeant (bis-AAF-R110) peptide substrates were diluted and added to all wells and the cells were incubated at 37° C., 5% CO2 for 1 hr. A set of cells were treated with saponin (2 mg/ml) as a positive control of cell cytotoxicity. Cell viability and cytotoxicity fluorescence signals were measured at 400 nm/505 nm and 485 nm/520 nm Excitation/Emission, respectively using a fluorescence microplate reader (SpectraMax i3). RFU signal obtained with the cell toxicity substrate was normalized to the one obtained with the viable substrate in the same well to eliminate the effect of different cell numbers per well.

[5] = concentrations above 10 uM, FIG. 3

| Compound | ABCA1 expression (western blot, whole cell lysates) (ABCA1 [1]; 5 uM, FIG. 4B) | ABCA1 expression (western blot, whole cell lysates) (ABCA1 [1]; 10 uM) | ApoA1-mediated cholesterol efflux (ABCA1 [2]; 5 μM) | ABCA1 in the microsomal compartment (ABCA1 [3]; 5 μM) | ABCA1 localization at the plasma membrane (ABCA1 [3]; 5 μM) | Cytotoxicity ([4]; 20 μM) | Cytotoxicity [4, 5] | ApoA1-mediated cholesterol efflux (ABCA1 [2]; 10 μM) | ABCA1 in the microsomal compartment (ABCA1 [3]; 10 μM) | ABCA1 localization at the plasma membrane (ABCA1 [3]; 10 μM) | ABCA1 expression (western blot, whole cell lysates) (ABCA1 [1]; doses as low as 1 uM, FIG. 4A) | ApoA1-mediated cholesterol efflux (ABCA1 [2]; 1 μM) | ABCA1 localization at the plasma membrane (ABCA1 [3]; 1 μM) |
| --- | --- | --- | --- | --- | --- | --- | --- | --- | --- | --- | --- | --- | --- |
| O=C(N[C@@H]1CCCC[C@H]1O)c1ccc(OCC(F)(F)F)c(-c2ccc(Cl)c(Cl)c2)n1 [Cpd A, 6-(3,4-Dichlorophenyl)-N-[(1R,2R)-2-hydroxycyclohexyl]-5-(2,2,2-trifluoroethoxy)pyridine-2-carboxamide] | modest increase | modest induction; also recorded: increased ABCA1 expression | increase ApoA1-mediated cholesterol efflux; also recorded: Significant increase | Less ABCA1 | increase the expression of ABCA1 at the plasma membrane; also recorded: promoted ABCA1 localization at the plasma membrane | significant toxicity | significant toxicity |  |  |  |  |  |  |
| O=C(N[C@@H]1CCCC[C@H]1O)c1cnc(OCC(F)(F)F)c(-c2ccc(Cl)c(Cl)c2)c1 [Cpd G, 5-(3,4-dichloro-phenyl)-N-((1R,2R)-2-hydroxy-cyclohexyl)-6-(2,2,2-trifluoro-ethoxy)-nicotinamide] |  | modest induction; also recorded: modest increase; also recorded: increased ABCA1 expression |  |  |  |  |  | increase ApoA1-mediated cholesterol efflux; also recorded: Significant increase | Less ABCA1 | increase the expression of ABCA1 at the plasma membrane; also recorded: promoted ABCA1 localization at the plasma membrane |  |  |  |
| Cc1oc(-c2cccc(C(F)(F)F)c2)nc1Cn1c(C)cc2cc(C(O)(C(F)(F)F)C(F)(F)F)ccc21 [Cpd C, 1,1,1,3,3,3-Hexafluoro-2-{2-methyl-1-[5-methyl-2-(3-trifluoromethyl-phenyl)-oxazol-4-ylmethyl]-1H-indol-5-yl}-propan-2-ol, reference compound] |  |  |  |  |  | significant toxicity | significant toxicity |  |  |  | strong induction; also recorded: markedly increased | increase ApoA1-mediated cholesterol efflux; also recorded: Significant increase | increase the expression of ABCA1 at the plasma membrane; also recorded: promoted ABCA1 localization at the plasma membrane |
